Reference: patent US20260022142A1, “MACROCYCLIC IMMUNOMODULATORS” (Bristol-Myers Squibb Company, priority 2022, published 2026)
Bridge positions count the residues as written; N and C are the ends. Square brackets hold non-standard residues; d marks the D form. Peptide text beside a SMILES is read from it. * marks the point of attachment. Phe(4-COOH) = N[C@@H](Cc1ccc(C(=O)O)cc1)C(=O)O; Bip = N[C@@H](Cc1ccc(-c2ccccc2)cc1)C(=O)O; Phe(3-Me) = Cc1cccc(C[C@H](N)C(=O)O)c1; NH(CH2)12COOH = O=C(O)CCCCCCCCCCCCN*; Val(3-OH) = CC(C)(O)[C@H](N)C(=O)O; 4Pal = N[C@@H](Cc1ccncc1)C(=O)O; Cha = N[C@@H](CC1CCCCC1)C(=O)O; Carboxymethyl = O=C(O)C*; Nle = CCCC[C@H](N)C(=O)O; Orn = NCCC[C@H](N)C(=O)O; Dab = NCC[C@H](N)C(=O)O; AEEA = NCCOCCOCC(=O)O

Target: T1, PD-1/PD-L1 interaction (PE-labeled human PD-L1-Ig binding to Jurkat cell line over-expressing human PD-1) (Homo sapiens, UniProt Q15116)
T1 construct: expressed in transfected cells; host or cells: Jurkat
Assay: Jurkat-PD-1 Cell Binding High-Content Screening Assay (CBA)
Assay type: cell-based
Settings: Jurkat cell line over-expressing human PD-1; PE-labeled PD-L1-Ig 20 nM final; read-out: Jurkat hPD1-PDL1 IC50
Method in brief: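 Jurkat cells stably over-expressing human PD-1 were seeded in DMEM with 10% fetal calf serum and pre-incubated with compound for 2 h at 37° C. PE-labeled human PD-L1-Ig was then added at 20 nM final for 1 hour, after which cells were fixed with paraformaldehyde, Hoechst-stained and imaged by high-content microscopy.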

T1 sequence (Q15116 25-288): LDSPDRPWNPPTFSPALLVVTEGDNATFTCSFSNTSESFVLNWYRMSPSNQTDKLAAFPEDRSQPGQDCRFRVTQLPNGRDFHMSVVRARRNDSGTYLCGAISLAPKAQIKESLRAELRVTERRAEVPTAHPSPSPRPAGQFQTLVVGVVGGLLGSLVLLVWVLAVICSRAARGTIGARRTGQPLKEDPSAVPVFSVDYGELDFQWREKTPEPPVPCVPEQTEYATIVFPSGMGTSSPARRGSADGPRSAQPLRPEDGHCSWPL

SMILES	IC50 [µM]
Cc1cccc(C[C@@H]2NC(=O)[C@H](CC(=O)O)NC(=O)[C@H](Cc3ccc(OCC(=O)O)cc3)NC(=O)[C@H](CCN)NC(=O)CSC[C@@H](C(=O)N[C@@H](CCN)C(=O)NCCOCCOCC(=O)NCCOCCOCC(=O)NCCCCCCCCCCCCC(=O)O)NC(=O)[C@H](CCC(=O)O)NC(=O)[C@H](C(C)(C)O)NC(=O)[C@H](CC3CCCCC3)NC(=O)[C@H](Cc3c[nH]cn3)NC(=O)[C@@H](CC(C)C)NC(=O)[C@H](CCCN)NC(=O)[C@H](Cc3ccc(C(=O)O)cc3)NC(=O)[C@H](Cc3ccc(-c4ccccc4)cc3)NC(=O)[C@H](Cc3ccc(C(=O)O)cc3)NC2=O)c1 [Compound 2888] ({CH2CO}-[Dab]Y(Carboxymethyl)D[Phe(3-Me)][Phe(4-COOH)][Bip][Phe(4-COOH)][Orn][dL]H[Cha][Val(3-OH)]EC[Dab][AEEA][AEEA]-{NH(CH2)12COOH}; thioether N-14)	0.0382
Cc1cccc(C[C@@H]2NC(=O)[C@H](CC(=O)O)NC(=O)[C@H](Cc3ccc(OCC(=O)O)cc3)NC(=O)[C@H](CCN)NC(=O)CSC[C@@H](C(=O)N[C@@H](CCN)C(=O)NCCOCCOCC(=O)NCCOCCOCC(=O)NCCCCCCCCCCCCC(=O)O)NC(=O)[C@H](CC(=O)O)NC(=O)[C@H](C(C)(C)O)NC(=O)[C@H](CC3CCCCC3)NC(=O)[C@H](Cc3c[nH]cn3)NC(=O)[C@@H](CC(C)C)NC(=O)[C@H](CCCN)NC(=O)[C@H](Cc3ccc(C(=O)O)cc3)NC(=O)[C@H](Cc3ccc(-c4ccccc4)cc3)NC(=O)[C@H](Cc3ccc(C(=O)O)cc3)NC2=O)c1 [Compound 2889] ({CH2CO}-[Dab]Y(Carboxymethyl)D[Phe(3-Me)][Phe(4-COOH)][Bip][Phe(4-COOH)][Orn][dL]H[Cha][Val(3-OH)]DC[Dab][AEEA][AEEA]-{NH(CH2)12COOH}; thioether N-14)	0.0524
Cc1cccc(C[C@@H]2NC(=O)[C@H](CC(=O)O)NC(=O)[C@H](Cc3ccc(C(=O)O)cc3)NC(=O)[C@H](CCN)NC(=O)CSC[C@@H](C(=O)N[C@@H](CCN)C(=O)NCCOCCOCC(=O)NCCOCCOCC(=O)NCCCCCCCCCCCCC(=O)O)NC(=O)[C@H](CO)NC(=O)[C@H](C(C)(C)O)NC(=O)[C@H](CC3CCCCC3)NC(=O)[C@H](Cc3c[nH]cn3)NC(=O)[C@@H](CC(C)C)NC(=O)[C@H](CCCN)NC(=O)[C@H](Cc3ccc(C(=O)O)cc3)NC(=O)[C@H](Cc3ccc(-c4ccccc4)cc3)NC(=O)[C@H](Cc3ccc(C(=O)O)cc3)NC2=O)c1 [Compound 2890] ({CH2CO}-[Dab][Phe(4-COOH)]D[Phe(3-Me)][Phe(4-COOH)][Bip][Phe(4-COOH)][Orn][dL]H[Cha][Val(3-OH)]SC[Dab][AEEA][AEEA]-{NH(CH2)12COOH}; thioether N-14)	0.0311
CCCC[C@@H]1NC(=O)CSC[C@@H](C(=O)N[C@@H](CCN)C(=O)NCCOCCOCC(=O)NCCOCCOCC(=O)NCCCCCCCCCCCCC(=O)O)NC(=O)[C@H](CO)NC(=O)[C@H](C(C)(C)O)NC(=O)[C@H](CC2CCCCC2)NC(=O)[C@H](CCN)NC(=O)[C@@H](CC(C)C)NC(=O)[C@H](CCCN)NC(=O)[C@H](Cc2ccc(C(=O)O)cc2)NC(=O)[C@H](Cc2ccc(-c3ccccc3)cc2)NC(=O)[C@H](Cc2ccc(C(=O)O)cc2)NC(=O)[C@H](Cc2cccc(C)c2)NC(=O)[C@H](CC(=O)O)NC(=O)[C@H](Cc2ccc(OCC(=O)O)cc2)NC1=O [Compound 2891] ({CH2CO}-[Nle]Y(Carboxymethyl)D[Phe(3-Me)][Phe(4-COOH)][Bip][Phe(4-COOH)][Orn][dL][Dab][Cha][Val(3-OH)]SC[Dab][AEEA][AEEA]-{NH(CH2)12COOH}; thioether N-14)	0.0026
CCCC[C@@H]1NC(=O)CSC[C@@H](C(=O)N[C@@H](CCN)C(=O)NCCOCCOCC(=O)NCCOCCOCC(=O)NCCCCCCCCCCCCC(=O)O)NC(=O)[C@H](CCC(=O)O)NC(=O)[C@H](C(C)(C)O)NC(=O)[C@H](CC2CCCCC2)NC(=O)[C@H](CCN)NC(=O)[C@@H](CC(C)C)NC(=O)[C@H](CCCN)NC(=O)[C@H](Cc2ccc(C(=O)O)cc2)NC(=O)[C@H](Cc2ccc(-c3ccccc3)cc2)NC(=O)[C@H](Cc2ccc(C(=O)O)cc2)NC(=O)[C@H](Cc2cccc(C)c2)NC(=O)[C@H](CC(=O)O)NC(=O)[C@H](Cc2ccc(OCC(=O)O)cc2)NC1=O [Compound 2892] ({CH2CO}-[Nle]Y(Carboxymethyl)D[Phe(3-Me)][Phe(4-COOH)][Bip][Phe(4-COOH)][Orn][dL][Dab][Cha][Val(3-OH)]EC[Dab][AEEA][AEEA]-{NH(CH2)12COOH}; thioether N-14)	0.0262
CCCC[C@@H]1NC(=O)CSC[C@@H](C(=O)N[C@@H](CCN)C(=O)NCCOCCOCC(=O)NCCOCCOCC(=O)NCCCCCCCCCCCCC(=O)O)NC(=O)[C@H](CC(=O)O)NC(=O)[C@H](C(C)(C)O)NC(=O)[C@H](CC2CCCCC2)NC(=O)[C@H](CCN)NC(=O)[C@@H](CC(C)C)NC(=O)[C@H](CCCN)NC(=O)[C@H](Cc2ccc(C(=O)O)cc2)NC(=O)[C@H](Cc2ccc(-c3ccccc3)cc2)NC(=O)[C@H](Cc2ccc(C(=O)O)cc2)NC(=O)[C@H](Cc2cccc(C)c2)NC(=O)[C@H](CC(=O)O)NC(=O)[C@H](Cc2ccc(OCC(=O)O)cc2)NC1=O [Compound 2893] ({CH2CO}-[Nle]Y(Carboxymethyl)D[Phe(3-Me)][Phe(4-COOH)][Bip][Phe(4-COOH)][Orn][dL][Dab][Cha][Val(3-OH)]DC[Dab][AEEA][AEEA]-{NH(CH2)12COOH}; thioether N-14)	0.0195
COc1ccc(C[C@@H]2NC(=O)[C@H](Cc3cccc(C)c3)NC(=O)[C@H](CC(=O)O)NC(=O)[C@H](Cc3ccc(OCC(=O)O)cc3)NC(=O)[C@H](Cc3ccncc3)NC(=O)CSC[C@@H](C(=O)N[C@@H](CCN)C(=O)NCCOCCOCC(=O)NCCOCCOCC(=O)NCCCCCCCCCCCCC(=O)O)NC(=O)[C@H](CO)NC(=O)[C@H](C(C)(C)O)NC(=O)[C@H](CC3CCCCC3)NC(=O)[C@H](CCN)NC(=O)[C@@H](CC(C)C)NC(=O)[C@H](CCCN)NC(=O)[C@H](Cc3ccc(OCC(=O)O)cc3)NC(=O)[C@H](Cc3ccc(-c4ccccc4)cc3)NC2=O)cc1 [Compound 2894] ({CH2CO}-[4Pal]Y(Carboxymethyl)D[Phe(3-Me)]Y(Me)[Bip]Y(Carboxymethyl)[Orn][dL][Dab][Cha][Val(3-OH)]SC[Dab][AEEA][AEEA]-{NH(CH2)12COOH}; thioether N-14)	0.259
Cc1cccc(C[C@@H]2NC(=O)[C@H](CC(=O)O)NC(=O)[C@H](Cc3ccc(OCC(=O)O)cc3)NC(=O)[C@H](Cc3c[nH]cn3)NC(=O)CSC[C@@H](C(=O)N[C@@H](CCN)C(=O)NCCOCCOCC(=O)NCCOCCOCC(=O)NCCCCCCCCCCCCC(=O)O)NC(=O)[C@H](CO)NC(=O)[C@H](C(C)(C)O)NC(=O)[C@H](CC3CCCCC3)NC(=O)[C@H](CCN)NC(=O)[C@@H](CC(C)C)NC(=O)[C@H](CCCN)NC(=O)[C@H](Cc3ccc(C(=O)O)cc3)NC(=O)[C@H](Cc3ccc(-c4ccccc4)cc3)NC(=O)[C@H](Cc3ccc(C(=O)O)cc3)NC2=O)c1 [Compound 2895] ({CH2CO}-HY(Carboxymethyl)D[Phe(3-Me)][Phe(4-COOH)][Bip][Phe(4-COOH)][Orn][dL][Dab][Cha][Val(3-OH)]SC[Dab][AEEA][AEEA]-{NH(CH2)12COOH}; thioether N-14)	0.0114
